Measured values as given in patent US4294833A, “Substituted 4-hydroxy-isophthalic acid picolylamides having a pharmaceutical activity in thromboembolic disorders” (Societa Italo-Britannica, priority 1977, dated 1981).

How the values were obtained:
[1] = Acute toxicity, intraperitoneal; conditions: mouse, in vivo, ip, male Swiss mice, intraperitoneal, 7 days observation; preliminary, by graphic interpolation; read-out: acute toxicity (LD50 / DL50)
Description: The acute toxicity limit was determined intraperitoneally on male Swiss mice, weighing 20±2 g, held fasting for 18 hours with water ad libitum.
The animals were maintained under observation for 7 days of treatment, by examining the general symptomatology and noting the death sequency. The preliminary DL50 in mg/kg body weight was calculated by graphic interpolation of the results as obtained.
(§1) In tables I and II are further indicated for each compound the method of preparation; the melting point PF in °C; the platelet antiaggregant activity (AAP) expressed in terms of DI50 in mg/kg, referred to ADP and thrombin respectively; the antithrombin activity (AT) in %; the anticoagulant activity (AC) in %; the fibrinolytic activity (FL) in %; the acute toxicity (LD50) in mice, intraperitoneally, in mg/kg, as previously defined.

[2] = tested on: platelet aggregation induced by ADP; test: Platelet aggregation inhibitory activity in vivo (Born aggregometer), ADP-induced; parameters: species or system New Zealand rabbits; conditions: Oryctolagus cuniculus, Platelet, ip, dose for 50% inhibition of ADP-induced aggregation curve; rabbits, intraperitoneal, blood 2, 4 and 6 hours after injection; read-out: platelet antiaggregant activity (AAP), DI50, ADP
Description: (§2) Determination of the platelet aggregation inhibitory activity in vivo
(§3) The activity of the above described compounds as platelet antiaggregant was tested in vivo on rabbits, by the Born aggregometer. The inhibition of the aggregation curve induced by ADP and thrombin was assessed with different drug concentrations according to the platelet reactivity. New Zealand rabbits which had been held fasting for 12 hours with water ad libitum, were anaesthetized with Nembutal in a dose of 35 mg/kg intramuscolarly. The blood was withdrawn from the carotidal arthery, before (control) and 2, 4, and 6 hours after the intraperitoneal injection of the compounds under examination (at the dose indicated below). The blood samples were taken up in a 3.8% aqueous solution of sodium citrate in a ratio 10:1 and thereupon centrifuged at 1500 r.p.m. for 10 minutes, for obtaining a PRP (platelet rich plasma). A portion of such a plasma was thereupon centrifuged at 8000 r.p.m. for 10 minutes, for obtaining a PPP (platelet lean plasma) which was used for zeroing the measuring apparatus.
(§4) From the results of said experiments, there was determined the dose of each product in mg/kg body weight able to induce a 50% inhibition of the aggregation curve (DI50) after treatment, referred to the curve obtained by the same control plasma before treatment.
as §1

[3] = tested on: thrombin-induced coagulation of platelet rich plasma; test: Antithrombin activity on PRP, Hartert's thromboelastograph; type: in vivo, New Zealand rabbits; conditions: Oryctolagus cuniculus, Platelet, ip, percent decrease of index ma/[r+k] vs before treatment; 20 mg/kg intraperitoneal, rabbits
Description: Determination of the antithrombin activity
The antithrombin activity on the PRP (platelet rich plasma) obtained following the above described method was assessed by Hartert's thromboelastograph (Hellige model). The coagulation was induced by adding to 0.25 ml of plasma 0.06 ml of a thrombin solution (Roche Topostasin® per os) at 60 units*, pH 7.4**. The antithrombin activity was assessed in terms of a percent decrease of the index (ma/[r+k]) which was calculated from the thromboelastograph diagram, wherein r is the reaction time, k is the speed of the coagulum formation and ma is the maximum spread of the tong, after an intraperitoneal treatment with a dose of 20 mg/kg of each compound under examination, referred to the same index obtained before the treatment (control).
as §1

blood coagulum = test: Fibrinolytic activity, Fearnley method (lysis of blood coagulum in toto); type: in vivo; conditions: Oryctolagus cuniculus, ip, 0.5 h, percent decrease of coagulum weight after 30 minutes at 37° C.; 25 mg/kg intraperitoneal, rabbits; read-out: fibrinolytic activity (FL)
Description: Determination of the fibrinolytic activity
The determination of the fibrinolytic activity was made following the Fearnley method for the lysis of the blood coagulum in toto.
0.2 ml of blood were withdrawn from the marginal vein of the ear of rabbits treated in the same way as the previously described tests, before and after an intraperitoneal injection of the compounds under test at a dose level of 25 mg/kg for each compound.
The blood samples were placed in test tubes containing 1.7 ml of phosphate buffer at pH 7.4 and 0.1 ml of thrombin (Roche Topostasin ® per os) at 50 units NIH/ml, and maintained in an ice bath. The test tubes were maintained at said temperature for 30 minutes and thereupon were transferred to a temperature controlled water bath at 37° C.
The fibrinolytic activity was determined as a percent decrease of the coagulum weight, measured after incubation for 30 minutes at 37° C.
as §1

[4] = tested on: CaCl2-induced plasma coagulation; test: Anticoagulant activity on PRP, Hartert's thromboelastograph; type: in vivo, New Zealand rabbits; conditions: Oryctolagus cuniculus, ip, percent increase of total time for coagulum formation (r+k) vs before treatment; 25 mg/kg intraperitoneal, rabbits; read-out: anticoagulant activity (AC)
Description: Determination of the anticoagulant activity
The anticoagulant activity was also assessed on PRP of animals treated as described in the preceding methods, by using again Hartert's thromboelastograph method.
The plasma coagulation was induced by adding to 0.25 ml PRP a 1.29% solution of CaCl2.
The anticoagulant effect was determined as a percent increase of the total time for the coagulum formation (the index r+k can be obtained from the thromboelastograph diagram) in a plasma after treatment, referred to the same index obtained before the treatment (control). Again the dose level was 25 mg/kg for each compound under examination, intraperitoneally.
as §1

[5] = tested on: platelet aggregation induced by thrombin; test: Platelet aggregation inhibitory activity in vivo (Born aggregometer), thrombin-induced; parameters: species or system New Zealand rabbits; conditions: Oryctolagus cuniculus, Platelet, ip, dose for 50% inhibition of thrombin-induced aggregation curve; rabbits, intraperitoneal, blood 2, 4 and 6 hours after injection; read-out: platelet antiaggregant activity (AAP), DI50, Thrombin
Description: as §2, §3, §4, §1

SMILES | LD50 at 168 h [1] [mg/kg] | ED50 [2] [mg/kg] | inhibition in vivo at 20 mg/kg [3] [%] | fibrinolytic activity (percent decrease of coagulum weight) at 25 mg/kg (blood coagulum) [%] | change in vivo at 25 mg/kg [4] [%] | ED50 [5] [mg/kg]
CC=COc1c(Cl)cc(C(=O)N(CCCCC)Cc2cccnc2)cc1C(=O)N(CCCCC)Cc1cccnc1 [Example 51] | 205 | 51.6 | 28.2 | 26.1 | 15.7 | 32.4
CC=CCOc1ccc(C(=O)N(C)Cc2ccncc2)cc1C(=O)N(C)Cc1ccncc1 [Example 69] | 210 | 26.1 | 48.7 | 41.6 | 14.2 | 19.3
COc1c(Cl)cc(C(=O)NCc2ccncc2)cc1C(=O)NCc1ccncc1 [Example 66] | 437 | 67.2 | 25 | 20.2 | 13.6 | 42.5
C=CCCOc1ccc(C(=O)NCc2cccnc2)cc1C(=O)NCc1cccnc1 [Example 8] | 362 | 35.5 | 50.6 | 42.1 | 14.2 | 25.7
COc1cc(C(=O)NCc2cccnc2)cc(C(=O)NCc2cccnc2)c1OC1CCCC1 [Example 20] | 375 | 35.6 | 32.6 | 27.9 | 12.9 | 21.4
CC(C)CCOc1ccc(C(=O)NCc2ccncc2)cc1C(=O)NCc1ccncc1 [Example 63] | 185 | 42.9 | 29.2 | 23.2 | 22.6 | 28.4
C=CCOc1c(C(=O)NCc2cccnc2)cc(C(=O)NCc2cccnc2)cc1[N+](=O)[O-] [Example 36] | 267 | 36.3 | 23 | 19.1 | 11.9 | 27.1
C=C(C)COc1ccc(C(=O)N(Cc2cccnc2)C(C)C)cc1C(=O)N(Cc1cccnc1)C(C)C [Example 56] | 352 | 29.1 | 47.3 | 38.1 | 18.6 | 21.4
CC(C)Oc1ccc(C(=O)NCc2ccncc2)cc1C(=O)NCc1ccncc1 [Example 62] | 618 | 46.8 | 26.5 | 21.7 | 12 | 32.3
C=CCOc1ccc(C(=O)NCc2ccncc2)cc1C(=O)NCc1ccncc1 [Example 61] | 392 | 28.6 | 52.8 | 45 | 15.6 | 19.5
COc1c(Cl)cc(C(=O)N(Cc2ccncc2)C(C)C)cc1C(=O)N(Cc1ccncc1)C(C)C [Example 71] | 384 | 28.1 | 53.9 | 47.7 | 25.6 | 19.6
CCC(C)Oc1ccc(C(=O)NCc2cccnc2)cc1C(=O)NCc1cccnc1 (stereo not drawn) [Example 14] | 227 | 46.4 | 38.1 | 22.5 | 22.3 | 29.7
COc1c(Cl)cc(C(=O)NCc2cccnc2)cc1C(=O)NCc1cccnc1 [Example 23] | 425 | 63.4 | 22.5 | 16.8 | 12.2 | 46.9
CC(C)(C)COc1c(Cl)cc(C(=O)NCc2cccnc2)cc1C(=O)NCc1cccnc1 [Example 28] | 215 | 45.3 | 27.9 | 25.5 | 19.6 | 31
CCC(CC)Oc1c(Cl)cc(C(=O)NCc2cccnc2)cc1C(=O)NCc1cccnc1 [Example 30] | 198 | 42.2 | 27.9 | 25.8 | 22.3 | 29.5
CC(C)COc1ccc(C(=O)NCc2cccnc2)cc1C(=O)NCc1cccnc1 [Example 15] | 471 | 52.6 | 25.5 | 19.8 | 17.6 | 33
CC(C)CCOc1ccc(C(=O)NCc2cccnc2)cc1C(=O)NCc1cccnc1 [Example 13] | 173 | 48.3 | 28.5 | 21.9 | 24.5 | 27.1
